Data set [1] deals with T1, Carnitine O-palmitoyltransferase 1, liver isoform (Homo sapiens, UniProt P50416).
T1 sequence (P50416 whole entry): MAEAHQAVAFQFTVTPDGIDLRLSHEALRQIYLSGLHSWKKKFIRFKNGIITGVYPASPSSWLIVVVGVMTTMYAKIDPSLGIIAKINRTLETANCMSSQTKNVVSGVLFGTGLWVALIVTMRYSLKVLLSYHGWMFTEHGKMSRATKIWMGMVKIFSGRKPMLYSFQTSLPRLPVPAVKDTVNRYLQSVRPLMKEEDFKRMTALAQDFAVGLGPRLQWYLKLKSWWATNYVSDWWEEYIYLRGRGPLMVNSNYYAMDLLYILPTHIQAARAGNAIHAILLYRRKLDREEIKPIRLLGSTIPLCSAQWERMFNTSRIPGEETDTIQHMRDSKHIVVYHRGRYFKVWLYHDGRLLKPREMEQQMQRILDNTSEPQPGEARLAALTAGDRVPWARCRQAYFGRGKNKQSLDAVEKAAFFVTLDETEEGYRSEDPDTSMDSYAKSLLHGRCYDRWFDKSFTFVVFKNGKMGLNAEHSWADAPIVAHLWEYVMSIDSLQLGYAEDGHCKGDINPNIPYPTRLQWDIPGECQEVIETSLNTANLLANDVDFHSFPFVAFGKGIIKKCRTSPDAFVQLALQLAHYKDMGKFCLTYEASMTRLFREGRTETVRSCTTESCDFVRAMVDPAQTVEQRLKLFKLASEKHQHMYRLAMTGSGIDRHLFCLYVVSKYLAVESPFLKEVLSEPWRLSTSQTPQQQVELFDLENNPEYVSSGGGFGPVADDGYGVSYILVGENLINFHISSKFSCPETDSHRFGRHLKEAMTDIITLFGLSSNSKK
Put plainly: Inhibition of CPT1 in liver mitochondria.

The test system of data set [2] is Mus musculus. Description: Reduction in glucose level in db/db mouse at 80 mg/kgl/day, po for 12 days. Type of data set: functional. More on the design: scale not given: the % may be the effect or the level left. To be noted: dose 80 mg/kg.
The subject of another data set is Cynomolgus monkey. Put plainly: Inhibition of ketogenesis in fasted po dosed cynomolgus monkey. It counts as functional. Particulars: Macaca fascicularis.
Another data set has as its system Rattus norvegicus. Put plainly: Reduction in glucose production in Sprague-Dawley rat at 5 to 25 pmol, icv administered as one or two single doses. It counts as functional. More on the design: scale not given: the % may be the effect or the level left.
For data set [3], the system named is Mus musculus. Put plainly: Reduction in blood glucose level in db/db mouse at 50 mg/kg, po bid for 45 days. It counts as functional. More on the design: scale not given: the % may be the effect or the level left.
In data set [4] the test system is Mus musculus. Put plainly: Increase in circulating FFA level in db/db mouse at 50 mg/kg, po bid for 45 days. Type of data set: functional.
The subject of data set [5] is Mus musculus. Description: Increase in liver TG level in db/db mouse at 50 mg/kg, po bid for 45 days. Type of data set: functional.
Data set [6] has as its system Mus musculus. Description: Reduction in water consumption in db/db mouse at 50 mg/kg, po bid for 45 days. Type of data set: functional. More on the design: scale not given: the % may be the effect or the level left.
Data set [7] relates to Mus musculus. Description: Reduction in serum fructosamine level in db/db mouse at 50 mg/kg, po bid for 45 days. It counts as functional. More on the design: scale not given: the % may be the effect or the level left.
The test system of data set [8] is Mus musculus. Description: Reduction in liver glycogen level in db/db mouse at 50 mg/kg, po bid for 45 days. Type of data set: functional. More on the design: scale not given: the % may be the effect or the level left.
The test system of data set [9] is Mus musculus. Put plainly: Reduction in serum glucose in db/db mouse at 50 mg/kg, po bid for 45 days. Set-up: scale not given: the % may be the effect or the level left. Type of data set: functional.
Data set [10] is described as follows: Inhibition of carnitine palmitoyltransferase in rat heart mitochondria assessed as conversion of [14C]palmitic acid to [14C]palmitoylcarnitine by radiometric assay.
Data set [11] can be described thus: Inhibition of carnitine palmitoyltransferase in rat liver mitochondria assessed as conversion of [14C]palmitic acid to [14C]palmitoylcarnitine by radiometric assay.
The nature of data set [12]: Inhibition of rat FAO.
Data set [13] is described as follows: Inhibition of human FAO.
Data set [14] has as its target T2, Carnitine O-palmitoyltransferase 2, mitochondrial (Homo sapiens, UniProt P23786).
T2 sequence (P23786 whole entry): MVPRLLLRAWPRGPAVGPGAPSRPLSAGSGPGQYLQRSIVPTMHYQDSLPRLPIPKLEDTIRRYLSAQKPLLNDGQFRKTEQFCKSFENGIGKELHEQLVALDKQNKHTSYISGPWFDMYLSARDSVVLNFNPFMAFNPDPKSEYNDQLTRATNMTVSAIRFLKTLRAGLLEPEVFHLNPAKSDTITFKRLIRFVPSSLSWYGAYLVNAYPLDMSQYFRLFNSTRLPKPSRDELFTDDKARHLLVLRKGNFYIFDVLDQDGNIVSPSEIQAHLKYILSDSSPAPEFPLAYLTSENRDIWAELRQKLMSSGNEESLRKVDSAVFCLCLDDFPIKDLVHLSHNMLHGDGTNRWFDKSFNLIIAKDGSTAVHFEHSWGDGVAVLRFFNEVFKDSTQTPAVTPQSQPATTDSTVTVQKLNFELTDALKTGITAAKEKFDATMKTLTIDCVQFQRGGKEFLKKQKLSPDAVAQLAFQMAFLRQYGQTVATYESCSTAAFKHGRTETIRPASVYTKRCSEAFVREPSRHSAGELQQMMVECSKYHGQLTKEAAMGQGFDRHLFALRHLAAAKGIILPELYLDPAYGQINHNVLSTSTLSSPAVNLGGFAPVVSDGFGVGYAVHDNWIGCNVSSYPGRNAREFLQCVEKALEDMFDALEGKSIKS
Put plainly: Inhibition of human CPT2.

In data set [15] the test system is Homo sapiens. Put plainly: Reduction in fasting insulin in NIDD patient at 450 mg/day, po for 15 days. More on the design: scale not given: the % may be the effect or the level left. It counts as functional.
Data set [16] has as its system Homo sapiens. Description: Reduction in HOMA index in NIDD patient at 450 mg/day, po for 15 days. Set-up: scale not given: the % may be the effect or the level left. Type of data set: functional.
Data set [17] is described as follows: Half life in NIDD patient at 150 to 450 mg/day, po for 15 days. Type of data set: ADME, organism-based. Particulars: human, in vivo.
Data set [18] deals with T3, Carnitine O-palmitoyltransferase 2, mitochondrial (Rattus norvegicus, UniProt P18886).
T3 sequence (P18886 whole entry): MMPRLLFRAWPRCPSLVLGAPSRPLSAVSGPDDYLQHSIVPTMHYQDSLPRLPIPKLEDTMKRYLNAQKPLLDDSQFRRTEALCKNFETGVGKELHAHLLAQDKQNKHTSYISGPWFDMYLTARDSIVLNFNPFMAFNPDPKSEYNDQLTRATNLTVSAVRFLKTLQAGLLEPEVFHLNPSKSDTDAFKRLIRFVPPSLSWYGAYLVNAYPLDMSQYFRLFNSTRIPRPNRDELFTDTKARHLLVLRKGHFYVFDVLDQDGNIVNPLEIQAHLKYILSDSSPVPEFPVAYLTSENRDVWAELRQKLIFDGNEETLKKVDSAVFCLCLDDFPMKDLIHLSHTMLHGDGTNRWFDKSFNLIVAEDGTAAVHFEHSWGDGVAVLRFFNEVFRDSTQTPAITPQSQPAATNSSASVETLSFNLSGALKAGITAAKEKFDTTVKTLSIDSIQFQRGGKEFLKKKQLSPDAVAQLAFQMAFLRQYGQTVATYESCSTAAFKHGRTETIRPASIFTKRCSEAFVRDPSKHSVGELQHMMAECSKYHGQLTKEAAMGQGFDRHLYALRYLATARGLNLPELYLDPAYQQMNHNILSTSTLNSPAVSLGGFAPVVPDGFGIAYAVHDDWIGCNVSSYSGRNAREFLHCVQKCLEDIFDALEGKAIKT
Put plainly: Inhibition of rat CPT2.

Data set [19] in a line: Critical micelle concentration of compound. Type of data set: physicochemical.
The nature of data set [20]: Competitive inhibition of carnitine palmitoyltransferase using palmitoyl-CoA.
The target of data set [21] is T4, Carnitine O-palmitoyltransferase 1, muscle isoform (Homo sapiens, UniProt Q92523).
T4 sequence (Q92523 whole entry): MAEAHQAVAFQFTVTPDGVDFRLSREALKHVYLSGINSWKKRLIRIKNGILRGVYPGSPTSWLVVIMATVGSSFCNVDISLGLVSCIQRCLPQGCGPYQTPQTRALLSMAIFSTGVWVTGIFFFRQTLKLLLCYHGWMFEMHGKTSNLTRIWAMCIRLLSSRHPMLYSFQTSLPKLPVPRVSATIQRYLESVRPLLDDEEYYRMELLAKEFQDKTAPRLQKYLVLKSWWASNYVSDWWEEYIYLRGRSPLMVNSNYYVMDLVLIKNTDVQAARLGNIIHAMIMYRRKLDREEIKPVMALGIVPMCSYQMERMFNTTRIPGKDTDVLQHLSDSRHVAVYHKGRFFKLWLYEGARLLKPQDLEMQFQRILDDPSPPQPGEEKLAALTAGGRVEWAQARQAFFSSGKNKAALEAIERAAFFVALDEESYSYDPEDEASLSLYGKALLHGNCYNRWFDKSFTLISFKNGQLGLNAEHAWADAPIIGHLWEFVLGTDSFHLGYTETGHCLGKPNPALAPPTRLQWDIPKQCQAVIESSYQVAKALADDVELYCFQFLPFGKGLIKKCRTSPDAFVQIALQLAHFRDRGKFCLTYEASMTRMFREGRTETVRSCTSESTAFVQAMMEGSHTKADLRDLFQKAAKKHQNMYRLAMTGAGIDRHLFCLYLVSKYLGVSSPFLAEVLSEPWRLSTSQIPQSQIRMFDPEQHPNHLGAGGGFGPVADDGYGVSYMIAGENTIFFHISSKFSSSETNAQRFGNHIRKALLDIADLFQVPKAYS
Put plainly: Inhibition of human CPT1B.

For data set [22], the target named is T1, Carnitine O-palmitoyltransferase 1, liver isoform. Description: Inhibition of human CPT1A.
Data set [23] concerns the target T5, Carnitine O-palmitoyltransferase 1, liver isoform (Homo sapiens) (UniProt P50416).
T5 sequence (whole entry): T1 sequence (P50416 whole entry)
Put plainly: Increase in CPT1A activity in hepatocytes at 60 uM. It counts as cell-based. To be noted: Hepatocyte.

For another data set, the system named is Hepatocyte. Description: Stimulation of FAO in hepatocytes at 28 uM. Type of data set: cell-based.
The target in data set [24] is T5, Carnitine O-palmitoyltransferase 1, liver isoform (Homo sapiens). Description: Increase in CPT1 activity in human MCF7 cells assessed as increase in radiolabeled palmitoylcarnitine relative to untreated control. Type of data set: cell-based.
Data set [25] addresses T1, Carnitine O-palmitoyltransferase 1, liver isoform. Put plainly: Increase in CPT1 activity in human MCF7 cells assessed as increase in radiolabeled palmitoylcarnitine. It counts as cell-based.
The target in data set [26] is T5, Carnitine O-palmitoyltransferase 1, liver isoform (Homo sapiens). Description: Increase in CPT1 activity in human MCF7 cells assessed as increase in radiolabeled palmitoylcarnitine at 31 uM. It counts as cell-based.
Data set [27] is described as follows: Inhibition of FAO in hepatocytes. It counts as cell-based. To be noted: hepatocyte.

As usually defined, the IC50 is the concentration needed to halve the response being measured. With `COc1ccc(CN2CCN(CCCSc3cc(C(C)(C)C)c(O)c(C(C)(C)C)c3)CC2)c(OC)c1OC`, in [1], 51 µM corresponded to half-maximal inhibition (IC50).
A word on the ED50: it is the dose that gives a 50% effect, or the effect in half of the subjects. In general, half-life refers to how long it takes for the measured level to halve. One may read the Ki as the dissociation constant of the complex between target and ligand, obtained from inhibition or displacement. As for `CCCCCCCCCCCCCCNC(=O)N[C@H](CC(=O)[O-])C[N+](C)(C)C`, the Activity in the data set on Mus musculus [2] came to 26%; with Rattus norvegicus, 45%; in the data set on Mus musculus [3], 39%; in the data set on Mus musculus [4], 20%; in the data set with Mus musculus [5] it was 38%; in the data set with Mus musculus [6], 30%. In addition, the Activity with Mus musculus [7] amounted to 30%; in the data set with Mus musculus [8], 25%; with Mus musculus [9], 25%; with Homo sapiens [15], 12%; in the data set with Homo sapiens [16] it was 25%. For the same molecule, in the data set on Cynomolgus monkey, the ED50 stood at 0.5 mg/kg. For the same molecule, the IC50 amounted to 43.4 µM in data set [10]; 1.1 µM in data set [11]; 0.98 µM in [12]; 4 µM in [13]; 0.16 µM in [14]; 0.38 µM in data set [18]. For the same molecule, the IC50 was determined as 5.4 µM in [21] and 1.05 µM in data set [22]. In [17], this molecule gave a half-life of 25 h. The CMC in data set [19] was 29 µM. For the same molecule, the Ki in [20] was 0.36 µM.
Broadly, the EC50 is the concentration at which the effect is half-maximal. As to `C=CCC1(CC=C)C(=O)S[C@](C)(CCCCCCCC)C1=O`, the Activity in data set [23] was 150%; in the data set on Hepatocyte, 150%; in data set [24], 140%; in [26] it was 177%. Moreover, the EC50 in data set [25] turned out to be 3 µM.
`CCCCCCOc1cccc(OCCCCCC(=O)NC2(CC(=O)[O-])CC[N+](C)(C)CC2)c1` gave an IC50 in data set [27] of 19 µM.

(Values after ChEMBL document CHEMBL2216752, “Carnitine palmitoyltransferase (CPT) modulators: a medicinal chemistry perspective on 35 years of research” (J Med Chem, 2011).)
